Assay results reported in PubChem BioAssay (NCI).
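Method: 48-hour compound exposure of cells in 96-well plates, five concentrations, linear interpolation of endpoints. Definition used: TGI = concentration required for complete inhibition of growth.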

Legend:
Experiment in all cases: DTP human tumour cell line panel, 48 h
OVCAR-8 ovarian = system: OVCAR-8 ovarian
MDA-N = system: MDA-N
RXF 393 renal = system: RXF 393 renal
OVCAR-4 ovarian = system: OVCAR-4 ovarian
SK-MEL-5 melanoma = system: SK-MEL-5 melanoma
HT29 colon = system: HT29 colon
COLO 205 colon = system: COLO 205 colon
SK-MEL-2 melanoma = system: SK-MEL-2 melanoma
SF-268 CNS = system: SF-268 CNS
NCI-H23 lung = system: NCI-H23 lung
HOP-62 NSCLC = system: HOP-62 NSCLC
NCI-H460 lung = system: NCI-H460 lung

Compound | TGI (OVCAR-8 ovarian) [µM] | TGI (MDA-N) [µM] | TGI (RXF 393 renal) [µM] | TGI (OVCAR-4 ovarian) [µM] | TGI (SK-MEL-5 melanoma) [µM] | TGI (HT29 colon) [µM] | TGI (COLO 205 colon) [µM] | TGI (SK-MEL-2 melanoma) [µM] | TGI (SF-268 CNS) [µM] | TGI (NCI-H23 lung) [µM] | TGI (HOP-62 NSCLC) [µM] | TGI (NCI-H460 lung) [µM]
COCN1C(=O)[C@@H]2C[C@@H](O)CN2C(=O)c2ccccc21 | > 100 | > 100 | > 100 | > 100 | > 100 | > 100 | > 100 | > 100 | > 100 | > 100 | > 100 | > 100
COC(=O)C1(Cc2ccccc2)Cc2ccccc2C1O (stereo not drawn) | > 100 | > 100 | > 100 | > 100 | > 100 | > 100 | > 100 | – | > 100 | > 100 | > 100 | > 100
CN(C)c1ccc(N=C2N=C(Nc3ccccc3)C(=Nc3ccccc3)S2)cc1 | > 100 | > 100 | > 100 | > 100 | > 100 | > 100 | > 100 | > 100 | > 100 | > 100 | > 100 | > 100
FC(F)(F)c1ccc2c(-c3cc[nH]c3)ccnc2c1 | > 100 | > 100 | 46.2 | > 100 | 43.3 | 39.2 | 43.8 | > 100 | – | > 100 | > 100 | > 100
O=S(Cc1ccccc1)c1ccccc1Cn1cccc1 (stereo not drawn) | – | – | > 100 | > 100 | > 100 | > 100 | > 100 | > 100 | > 100 | > 100 | > 100 | > 100
COC(=O)CN(CC(=O)NCCNC(=O)OC(C)(C)C)C1CCCCC1N(CC(=O)OC)CC(=O)OC (stereo not drawn) | > 100 | > 100 | – | – | > 100 | > 100 | > 100 | > 100 | > 100 | > 100 | > 100 | > 100
Cc1[nH]c2ncn3[nH]c(=S)nc3c2c1Cc1ccccc1 | > 100 | – | > 100 | > 100 | > 100 | > 100 | > 100 | > 100 | > 100 | > 100 | > 100 | > 100
CSc1nc(-c2ccccc2)[nH]c(=O)n1 | > 100 | – | > 100 | > 100 | > 100 | > 100 | > 100 | > 100 | > 100 | > 100 | > 100 | –
O=C(NC(CS)C(=O)O)c1c2ccccc2nc2ccccc12 (stereo not drawn) | > 100 | > 100 | – | > 100 | 12.8 | > 100 | 23.5 | > 100 | > 100 | 68.6 | > 100 | > 100
O=C1NC(=O)C(CCC(=O)c2cccc3ccccc23)C(=O)N1 | > 100 | > 100 | > 100 | > 100 | > 100 | > 100 | > 100 | > 100 | > 100 | > 100 | – | > 100
Cc1ccc(S(=O)(=O)N(CCN)c2cc3c4c(c2)Oc2cccc5c2C4c2c(cccc2O3)O5)cc1 | 23.2 | 67.6 | – | – | 45.5 | 28.6 | 57.9 | 47.7 | 27.4 | > 100 | 28.7 | > 100
CCOC(=O)c1c(NC(=S)Nc2ccccc2)sc2c1CCN(C)C2 | > 100 | > 100 | > 100 | – | > 100 | > 100 | > 100 | > 100 | > 100 | > 100 | > 100 | > 100
COc1cc(/C=N/NC(=O)c2c(Cl)c(Cl)c(Cl)c(Cl)c2-c2nc3ccc(C(=O)c4ccccc4)cc3[nH]2)ccc1O | > 100 | 52 | > 100 | > 100 | > 100 | > 100 | 58.1 | > 100 | > 100 | > 100 | > 100 | –
COc1c(Sc2c(SCSc3cnc4ccccc4c3Sc3cnc4ccccc4c3OC)cnc3ccccc23)cnc2ccccc12 | > 100 | > 100 | – | > 100 | > 100 | > 100 | > 100 | > 100 | > 100 | > 100 | > 100 | > 100
Oc1ccc(Br)cc1C=Nc1c(NC2CCCCC2)oc2ccc(Br)cc12 | > 100 | > 100 | 27.1 | > 100 | > 100 | 78.4 | – | – | > 100 | 56 | > 100 | > 100
CCOC(=O)c1cc(=O)c2cccc3c2n1CCS3 | > 100 | > 100 | – | – | > 100 | > 100 | > 100 | > 100 | > 100 | > 100 | > 100 | > 100
CC(=O)C1C(=O)C(=O)N(c2ccc([N+](=O)[O-])cc2[N+](=O)[O-])C1=O (stereo not drawn) | > 100 | – | > 100 | > 100 | > 100 | > 100 | > 100 | > 100 | > 100 | > 100 | > 100 | > 100
N#CC(O)CCOCc1ccccc1 (stereo not drawn) | > 100 | > 100 | – | > 100 | > 100 | > 100 | > 100 | > 100 | > 100 | > 100 | > 100 | > 100
Brc1ccc(-c2[nH]c3ccccc3c2/C=N\Nc2ccc(-c3nc4ccccc4[nH]3)cc2)cc1 | > 58.5 | < 0.01 | > 43.6 | > 100 | 1.41 | – | 0.0834 | > 35.4 | 6.28 | > 46.6 | > 68.5 | > 51.6
COc1cccc([C@@H]2C/C(=N\NC(=O)C(=O)N[C@@H](C)c3ccccc3)c3ccccc3N2)c1 | – | > 100 | > 100 | > 100 | > 100 | – | > 100 | > 100 | > 100 | – | > 100 | –
